One series has as its system S. aureus 209P-A9497. Put plainly: Antibacterial activity, serial two-fold agar dilution method. The class given is cell-based. The conditions noted are these: Staphylococcus aureus, read-out: Minimum Inhibitory Concentration (MIC). How it is done:
(§1) The antibacterial activities of sandramycin were determined by a serial two-fold agar dilution method. The results are shown in Table 5 in comparison with the activities of luzopeptin A and echinomycin.

For another series, the system named is P-388 leukemia. The series is described as follows: Transplantable mouse tumor P-388 leukemia. The class given is in vivo, mouse (CDF1 female mice). The conditions noted are these: for MST (median survival time): control MST 9.0 days. How it is done:
The methodology used generally followed the protocols of the National Cancer Institute [Cancer Chemotherapy Rep. Part 3, 3, 1-103 (1972)]. The essential experimental details are given at the bottom of Table 6. Two different dose regimens were tested: single dose on day 1 and daily for 5 days. With both schedules, the optimum dose appears to be about 0.2 mg/kg/injection.
Tumor inoculum: 10^6 ascites cells implanted i.p.
Evaluation: MST = median survival time
Effect: % T/C ≥ (MST treated/MST control) × 100
Criteria: % T/C = 125 considered significant antitumor activity
AWC: average weight change (treatedcontrol) in grams (on day 4)

Series [1] concerns gram-positive organisms such as Bacillus subtilis and Staphylococcus aureus as well as Streptococcus faecalis. Put plainly: Antibacterial activity, serial two-fold agar dilution method (statement in words). The class given is cell-based. On the procedure: as §1
(In agar dilution, organisms are placed on agar that contains the substance at set levels.)

The structures appear in SMILES notation. In brackets after ≈: the same amount, converted by molar mass. Bridge positions count the residues as written; N and C are the ends. Square brackets hold non-standard residues; d marks the D form. Peptide text beside a SMILES is read from it. I, II: the chains in the order shown. * marks the point of attachment. Quinaldoyl(3-OH) = O=C(c1nc2ccccc2cc1O)*; NMeV = CN[CH](C(=O)O)C(C)C; Pip = O=C(O)[CH]1CCCCN1; Sar = CNCC(=O)O

For `CS[C@H]1SC[C@H]2C(=O)N(C)[C@@H](C(C)C)C(=O)OC[C@@H](NC(=O)c3cnc4ccccc4n3)C(=O)N[C@@H](C)C(=O)N(C)[C@@H]1C(=O)N(C)[C@@H](C(C)C)C(=O)OC[C@@H](NC(=O)c1cnc3ccccc3n1)C(=O)N[C@@H](C)C(=O)N2C` [Echinomycin, reference compound], the MIC in the series with S. aureus 209P-A9497 is 0.012 µg/mL (≈ 0.0109 µM).

As to `CC(C)C1C(=O)OCC(NC(=O)c2nc3ccccc3cc2O)C(=O)N2CCCCC2C(=O)NCC(=O)N(C)CC(=O)N(C)C(C(C)C)C(=O)OCC(NC(=O)c2nc3ccccc3cc2O)C(=O)N2CCCCC2C(=O)NCC(=O)N(C)CC(=O)N1C` (stereo not drawn) [Sandramycin] (I: {Quinaldoyl(3-OH)}-S[Pip]G[Sar][NMeV] / II: {Quinaldoyl(3-OH)}-S[Pip]G[Sar][NMeV]; ester I:1-II:C, I:C-II:1; configuration not given here), the optimum dose result in the series with P-388 leukemia (both schedules: single dose on day 1 and daily for 5 days, IP) is given as “about 0.2 mg/kg/injection”. The “AWC (average weight change) Day 4” value in the series on P-388 leukemia (d. 1, IP, 0.025 mg/kg/inj.) is -0.2 gm; in the series on P-388 leukemia (d. 1, IP, 0.05 mg/kg/inj.), -0.6 gm; in the series with P-388 leukemia (d. 1, IP, 0.1 mg/kg/inj.), -0.9 gm; with P-388 leukemia (d. 1, IP, 0.2 mg/kg/inj.), -1.4 gm; in the series with P-388 leukemia (d. 1, IP, 0.4 mg/kg/inj.) it was -0.7 gm; in the series with P-388 leukemia (d. 1, IP, 0.8 mg/kg/inj.) it was -1.6 gm. The “AWC (average weight change) Day 4” value with P-388 leukemia (d. 1, IP, 1.6 mg/kg/inj.) was -1.3 gm; with P-388 leukemia (d. 1, IP, 3.2 mg/kg/inj.) it was -2.8 gm; in the series on P-388 leukemia (d. 1→5, IP, 0.0125 mg/kg/inj.), -0.9 gm; in the series on P-388 leukemia (d. 1→5, IP, 0.025 mg/kg/inj.), -1.4 gm; in the series on P-388 leukemia (d. 1→5, IP, 0.05 mg/kg/inj.), -1.8 gm; in the series with P-388 leukemia (d. 1→5, IP, 0.1 mg/kg/inj.) it was -0.8 gm. Moreover, the “AWC (average weight change) Day 4” value in the series with P-388 leukemia (d. 1→5, IP, 0.2 mg/kg/inj.) is reported as -1.7 gm; in the series on P-388 leukemia (d. 1→5, IP, 0.4 mg/kg/inj.) it was -1.3 gm; in the series with P-388 leukemia (d. 1→5, IP, 0.8 mg/kg/inj.), -1.4 gm; in the series with P-388 leukemia (d. 1→5, IP, 1.6 mg/kg/inj.), -1.7 gm. Moreover, the “MST (median survival time)” value is 9.5 days in the series on P-388 leukemia (d. 1, IP, 0.025 mg/kg/inj.); 10.0 days in the series on P-388 leukemia (d. 1, IP, 0.05 mg/kg/inj.); 11.0 days with P-388 leukemia (d. 1, IP, 0.1 mg/kg/inj.); 11.0 days in the series with P-388 leukemia (d. 1, IP, 0.4 mg/kg/inj.); 10.0 days in the series on P-388 leukemia (d. 1, IP, 0.8 mg/kg/inj.); “Toxic” in the series on P-388 leukemia (d. 1, IP, 3.2 mg/kg/inj.). Moreover, the “MST (median survival time)” value in the series on P-388 leukemia (d. 1→5, IP, 0.025 mg/kg/inj.) is on record as 10.0 days; in the series with P-388 leukemia (d. 1→5, IP, 0.05 mg/kg/inj.) it was 8.5 days; with P-388 leukemia (d. 1→5, IP, 0.2 mg/kg/inj.), 12.0 days; with P-388 leukemia (d. 1→5, IP, 0.4 mg/kg/inj.) it was 11.0 days; in the series on P-388 leukemia (d. 1→5, IP, 0.8 mg/kg/inj.), 6.0 days; with P-388 leukemia (d. 1→5, IP, 1.6 mg/kg/inj.) it was “Toxic”. Also, the “Survivors Day 5” value in the series on P-388 leukemia (d. 1→5, IP, 0.0125 mg/kg/inj.) was 6/6. Further, the antibacterial activity result in series [1] is reported as “strongly inhibitory”. In the series on S. aureus 209P-A9497, the MIC came to 0.012 µg/mL (≈ 0.00983 µM).

The record behind these values is patent publication US4599310A, “Process for producing antitumor antibiotic compound” (priority 1985, dated 1986).
